Patent US4431664A, “Compound with antiulcerogenic activity, process for the preparation thereof and pharmaceutical composition therefrom” (Ausonia Farmaceutici s.r.l., priority 1981, dated 1984)

System: mouse
Test: Toxicity by single intraperitoneal administration, LD50 (Litchfield and Wilcoxon)
Type: in vivo
Conditions: i.p., in words
From the text: The toxicity of AP 880 by single administration has been studied in comparison with the toxicity of ranitidine in mouse, by administration of larger and larger doses of compound (I) by the intraperitoneal route. The LD50 values, determined according to the method of Litchfield and Wilcoxon (J. Pharm. Exp. Ther. 96-99, (1949)) are reported in the following Table: […]

With `CN(C)Cc1ccc(CSCCNC(=C[N+](=O)[O-])NCc2ccc3c(c2)OCO3)o1` [AP 880, N-(2-(((5-(dimethylamino)-methyl-2-furanyl)-methyl)-thio)-ethyl)-N'-(3,4-methylenedioxybenzyl)-2-nitro-1,1-ethendiamine] the “toxicity with respect to ranitidine” value was “substantially lower toxicity”.
